This is an account of results in patent US5637591A, “Antimicrobial and anticollagenase activity of phenazine-5, 10-dioxide and derivatives” (Fuji ImmunoPharmaceuticals Corp., priority 1995, dated 1997).

The subject of one assay is E. coli (strain B). The assay can be described thus: IC90 in plating medium, 24-well plates. It counts as cell-based. Conditions: Escherichia coli, rfa. As to the method:
(§1) Drug solutions were mixed with plating medium to produce a range of final drug concentrations. Media with drug were plated in the wells of 24-well plates. A drop of bacterial suspension containing 2-5×10^2 CFU was placed on each well. Plates were incubated overnight at 37° C.
(§2) The concentration of the compound necessary to reduce viability of each micro-organism by 90% (inhibitory concentration 90%=IC90) is reported in Table 3 as μg/ml. Bacterial strains are listed in order of decreasing susceptibility to 2-aminophenazine-5,10-dioxide.

The test system of the next assay is Klebsiella pneumoniae. Nature of the assay: IC90 in plating medium, 24-well plates. It counts as cell-based. As for the experimental part: as §1, §2
The subject of a further assay is Micrococcus luteus. The assay can be described thus: IC90 in plating medium, 24-well plates. The class given is cell-based. As for the experimental part:
as §1, §2

A further assay deals with Proteus mirabilis. Nature of the assay: IC90 in plating medium, 24-well plates. The class given is cell-based. As to the method: as §1, §2
For another assay, the system named is Pseudomonas aeruginosa. Nature of the assay: IC90 in plating medium, 24-well plates. The class given is cell-based. As for the experimental part:
as §1, §2

The test system of the next assay is Serratia marsescens. The assay can be described thus: IC90 in plating medium, 24-well plates. The class given is cell-based. As to the method:
as §1, §2

The test system of a further assay is Staphylococcus aureus. Nature of the assay: IC90 in plating medium, 24-well plates. The class given is cell-based. As for the experimental part: as §1, §2
Assay [1] has as its system purified collagenase from P. gingivalis. The assay can be described thus: anti-collagenase activity, 3H-collagen hydrolysis. The class given is biochemical. The settings on record: for % Inhibition of collagenase: 24 h at 25° C. As to the method: Collagenase activity in the presence of the preferred compound 2-aminophenazine-5,10-dioxide and in the presence of Tetracycline were measured by incubating ^3 H-collagen with purified collagenase from P. gingivalis using increasing drag concentrations. After 24 h at 25° C., unhydrolyzed collagen fibers were removed from the mixture by centrifugation, and the specific activity of ^3 H in the supernatant quantified as a measure of hydrolyzed collagen. Percent inhibition was determined by subtracting the value in the presence of test compound from the control value, then dividing this quantity by the control value [(control-compound)/control×100].

Another assay concerns P. gingivalis. Nature of the assay: bone loss after oral colonization with P. gingivalis in mice, systemic administration. The class given is in vivo, BALB/c mice. Conditions: infected mice, IP daily; 25 d (2-methylphenazine-5,10-dioxide) or 40 d (Tetracycline). As to the method: An animal model for testing the antimicrobial activity of the invention against P. gingivalis was conducted by inducing oral colonization of the microbe in BALB/c mice. Drug (2-methylphenazine-5,10-dioxide or Tetracycline) or control (2.5% cyclodextran) was administered intraperitoneally once each day for 25 days (2-methylphenazine-5,10-dioxide) or 40 days (Tetracycline). On the day following the last dose administration, the rear molars of the mice were swabbed and the swabs incubated in a growth medium to assess the presence of P. gingivalis. Mice were then sacrificed and jaw bones harvested for evaluation of bone loss.

Converted amounts (≈) assume the structure as drawn. A value given as a limit tells only on which side of the number the result lay.

Consider `Nc1ccc2c(c1)[n+]([O-])c1ccccc1[n+]2[O-]` [2-aminophenazine-5,10-dioxide], for which the IC90 (as a rule, the concentration needed for an effect of 90%) with E. coli (strain B) was 0.31 mg/L (≈ 1.36 µM); with Klebsiella pneumoniae, 10 mg/L (≈ 44 µM); in the assay with Micrococcus luteus (Micrococcus luteus), 10 mg/L (≈ 44 µM); with Proteus mirabilis, 5 mg/L (≈ 22 µM); in the assay with Pseudomonas aeruginosa, greater than 10 mg/L; with Serratia marsescens, 10 mg/L (≈ 44 µM). The compound also showed a concentration for an effect of 90% (IC90) in the assay on Staphylococcus aureus of 0.62 mg/L (≈ 2.73 µM). Further, the “activity against M. luteus” value with Micrococcus luteus was “lack of activity”. The “% Inhibition of collagenase” value is 11.6% in assay [1] (1 μg/ml), 47.3% in [1] (10 μg/ml), 57.3% in assay [1] (50 μg/ml) and 81.7% in assay [1] (100 μg/ml). Further, in assay [1] (estimated from Table 5), the “anti-collagenase IC50” value is listed as “more than 10 μg/ml”.
Consider `Cc1ccc2c(c1)[n+]([O-])c1ccccc1[n+]2[O-]` [2-methylphenazine-5,10-dioxide], for which the “effect of treatment on bone loss” value in the assay on P. gingivalis is on record as “reduced the observed bone loss”.
